Data reported in patent publication US20240279263A1, “NOVEL SEA ALGAE-DERIVED ALKYL-AGARBIOSIDE, PREPARATION METHOD THEREFOR, OR USE THEREOF” (KOREA UNIVERSITY RESEARCH AND BUSINESS FOUNDATION, priority 2021, published 2024).

How the values were obtained:
[1] = tested on: HaCaT cells; test: MTT cytotoxicity test in HaCaT keratinocytes; type: cell-based, human; conditions: for Cytotoxicity: HaCaT cells, AB below 100 µg/mL
Description: Cytotoxicity tests were performed using the MTT(3-4,5-dimethylthiazol-2yl)-2,5-diphenyl-2H-tetrazolium bromide) assay. HaCaT cells were cultured in an animal cell incubator at 37° C. and 5% CO2 in a laboratory using Dulbecco's Modified Eagle Medium (DMEM) containing 10% (v/v) FBS, 100 U/mL penicillin, and 100 µg/mL streptomycin as antibiotics. The produced AB was dissolved in DMSO and added to the culture medium at […], and cells were cultured in the medium for 24 hours. The cells were treated with an MTT solution (5 mg/mL) and cultured for another 4 hours, and then an amount of the produced formazan as a blue crystal, was measured by measuring absorbance at 595 nm using an ELISA reader. Toxicity to cells was expressed as a percentage of the average absorbance value of each control group. To investigate the cytotoxicity of AB in HaCaT keratinocytes, when AB was treated at a concentration of […], the degree of change in cell proliferation was calculated compared to control groups treated with only DMSO. The results of Example 1 are shown in A of FIG. 1.
B of FIG. 1 illustrates the presence or absence of a cytotoxic effect when HaCaT keratinocytes are treated with AB according to an example of the present invention. Cell viability was measured to be 100% or more at 100 µg/mL AB.

[2] = Temperature stability (denaturation/decomposition over time); type: physicochemical; conditions: for Time for which stability was maintained at 4° C. / Time for which stability was maintained at 30° C.: HPLC
Description: The temperature stability of agarobiose was tested. The experimental method measured the denaturation/decomposition degrees of AB and ethyl-agarobioside over time at 4° C., 30° C., and 45° C. […] AB and ethyl-agarobioside were quantified using HPLC.

[3] = tested on: HAS2; test: HAS2 expression in HaCaT cells by Western blot (moisturizing effect); type: cell-based, human; conditions: for HAS2 expression compared to L-AHG: same concentration (100 μg/mL, FIG. 7)
Excerpt: Hyaluronan (HA) is a glycosaminoglycan composed of D-glucuronic acid and N-acetyl-D-glucosamine. Due to its ability to retain large amounts of water, HA plays an important role in regulating hydration and osmotic pressure. […] is synthesized in cell membranes by HAS1, HAS2, and HAS3, and HAS2 in particular appears in human normal tissues. […] Therefore, increasing HAS2 expression may be a great strategy to maintain skin homeostasis. To determine the AB induction time and AB concentration for HAS2 expression, Western blot analysis was performed. Cells used for the analysis were HaCaT cells, which were cultured at 37° C. in a 5% CO2 atmosphere using DMEM with 10% FBS and penicillin/streptomycin. Cells (1×10^5) were cultured in 6-cm dishes for 24 hours and then starved in serum-free medium for another 24 hours to remove the FBS effect on the activation of the kinase. Then, AB was treated at a certain time and concentration. Cells were lysed with a lysis buffer [20 mM Tris-HCl (pH 7.5), 150 mM NaCl, 1 mM Na2EDTA, 1 mM EGTA, 1% Triton X-100, 2.5 mM sodium pyrophosphate, 1 mM β-glycerophosphate, 1 mM Na3VO4, […] leupeptin, 1 mM phenylmethylsulfonyl fluoride (PMSF), and a protease inhibitor cocktail tablet]. The protein concentration was measured using a dye-conjugated protein assay kit (Bio-Rad Laboratories Inc.) according to the manufacturer's instructions. Dissolved proteins (20-40 μg) were subjected to 10% SDS-PAGE and transferred to a polyvinylidene fluoride (PVDF) membrane by electrophoresis (Millipore Corp., Bedford, MA, USA). After blotting, the membrane was blocked with 5% skim milk for 2 hours and incubated overnight at 4° C. with a primary antibody […]. Subsequently, the membrane was incubated with a secondary antibody (goat anti-rabbit IgG HRP-conjugated secondary antibody), and the protein bound to the antibody was detected using a chemiluminescence detection kit (Amersham Pharmacia Biotech, Piscataway, NJ). Representative values of two independent experiments were used as data. […] The moisturizing activity of AB was confirmed from the result.

[4] = pH stability (degree of denaturation over time at 25° C.); type: physicochemical; conditions: for Stability over time at pH 3: pH 3 (20 mM citrate); for Stability over time at pH 7: pH 7 (20 mM Tris-HCl)
Description: The pH stability of AB was assessed (C of FIG. 1). For a pH stability experiment, the degree of denaturation in each sample (AB) over time was measured at 25° C. under conditions of pH 3 (20 mM citrate), pH 7 (20 mM Tris-HCl), and pH 9 (20 mM Tris-HCl). […] Since the buffer and AB peaks were not separated at pH 3 using HPLC, AB was quantified through GC/MS analysis. The derivatization process for GC/MS analysis is as follows. After drying a purified sample with a speed vac, 10 μL of 40 mg/mL O-methylhydroxylamine hydrochloride in pyridine was added and reacted at 30° ° C. and 200 rpm for 90 minutes. Then, 45 μL of N-methyl-N-(trimethylsilyl)trifluoroacetamide was added and reacted at 37° C. and 200 rpm for 30 minutes. Instrument conditions for GC/MS analysis are as follows. A DB5-MS capillary column was used in the analysis, and the GC column temperature condition was maintained at 50° C. for 1 minute and then raised to 280° C. and maintained for 5 minutes. 1 μL of sample was analyzed in a splitless mode. Each concentration of […] at pH 7 and pH 9 was analyzed using HPLC. HPX-87H was used as a column, and the sample was analyzed at a column temperature of 65° C. and a flow rate of 0.5 mL/min. 0.005 M sulfuric acid was used as a mobile phase.

[5] = tested on: HAS2; conditions: Korean Registered Patent No. 10-1525298; cited from earlier work

| Time to complete denaturation / decomposition at pH 9 ([4]; pH 9 (20 mM Tris-HCl)) | Structure (SMILES) | Cytotoxicity [1] | Stability at 45° C. [2] | Time for which stability was maintained at 4° C. [2] | Time for which stability was maintained at 30° C. [2] | Conversion product at 45° C. ([2]; 45° C., HPLC analysis of reactant components) | HAS2 expression compared to L-AHG [3] | Moisturizing activity (HAS2 expression level) ([3]; same manner as Example 1) | Stability over time at pH 3 [4] | Stability over time at pH 7 [4] | Stability over time at pH 9 ([4]; pH 9 (20 mM Tris-HCl)) | Cell viability ([1]; HaCaT keratinocytes, 24 hours, 100 µg/mL AB, vs DMSO control) | HAS2 expression, concentration dependence ([3]; Western blot) | HAS2 expression ([3]; Western blot, 3 hours after treatment) | Moisturizing activity in HaCaT cells (previous study) [5] |
| --- | --- | --- | --- | --- | --- | --- | --- | --- | --- | --- | --- | --- | --- | --- | --- |
| – | CCOC1O[C@H]2CO[C@H]([C@@H]2O[C@@H]2O[C@H](CO)[C@H](O)[C@H](O)[C@H]2O)[C@@H]1O (stereo partly shown) [ethyl-agarobioside] | without cytotoxicity | less stable than AB after 6 weeks | 15 weeks | 15 weeks | converted to AB | greatly increased | exhibits moisturizing activity | maintained | maintained | maintained | – | – | – | – |
| ≤ 6 weeks | OC[C@H]1O[C@@H](O[C@H]2[C@H]3OC[C@@H]2OC(O)[C@H]3O)[C@H](O)[C@@H](O)[C@H]1O (mixture of isomers) [AB, agarobiose] | no cytotoxicity | stability slowly decreased | 15 weeks | 15 weeks | – | greatly increased | – | stable | stable | – | ≥ 100% | increased HAS2 expression in a concentration-dependent manner | increased HAS2 expression | – |
| – | O=C[C@@H](O)[C@@H]1OC[C@H](O)[C@H]1O [L-AHG, 3,6-anhydro-L-galactose] | – | – | – | – | – | – | – | – | – | – | – | – | – | has moisturizing activity |
